Results on one molecule are retold here after patent US20250340548A1, “KRAS G12C INHIBITORS” (Frontier Medicines Corporation, priority 2021, published 2025).

The target of the experiment is T1, KRAS G12C and cRAF (Homo sapiens, UniProt P01116, C118S/C51S/C80L/G12C).
T1 construct: truncated version comprising amino acids 1-169
Put plainly: AlphaScreen inhibition of KRAS G12C (GMPPNP-loaded) and cRAF RBD binding. Format: biochemical. The conditions noted are these: KRAS G12C preloaded with GMPPNP, 0.5 nM KRAS G12C, 0.75 nM RBD, 19-20 h compound incubation, room temperature. From the text:
The ability of compounds of Formula (I), Formula (I-1), Formula (I-2), Formula (II), Formula (II-1) and Formula (II-2), and pharmaceutically acceptable salts and/or isotopologues thereof, to inhibit activity of the GTP-bound form of KRAS G12C can be tested using methods such as the in vitro assay described in Examples 308 and 309 below. Example 308 describes determining, for various compounds, the half-maximal inhibition (IC50) of KRAS G12C loaded with GTP analogue GMPPNP from binding to cRaf, as the Ras-binding domain (RBD). […]
The AlphaScreen technology was used to determine IC50S for compound inhibition of KRAS G12C (present as the Cys-light (C51S, C80L and C118S), truncated version comprising amino acids 1-169) and cRAF interaction. […] A mixture of RBD and the AlphaScreen streptavidin donor and glutathione acceptor beads diluted in 25 mM Hepes, pH 7.4, 150 mM NaCl, 5 mM MgCl2, 0.01% TritonX-100 and 2% DMSO was then added at 10 ul/well and incubated for 60-90 minutes before the samples were read for emission at 570 nm after excitation of the donor beads at 680 nm. […] IC50S were determined using nonlinear regression fit of [inhibitor]vs. response (4 parameters).
A counter assay was also set up to rule out inhibitors of the AlphaScreen technology itself. […] Samples were read and analyzed as above.
For orientation: Alpha assays give light when donor and acceptor beads are brought close together.

Molecules are shown by their SMILES.

The IC50 is the concentration that gives 50% inhibition. High values mean a need for much substance, low ones inhibition by little substance.

T1 sequence (P01116 1-169 isoform P01116-2 G12C/C51S/C80L/C118S): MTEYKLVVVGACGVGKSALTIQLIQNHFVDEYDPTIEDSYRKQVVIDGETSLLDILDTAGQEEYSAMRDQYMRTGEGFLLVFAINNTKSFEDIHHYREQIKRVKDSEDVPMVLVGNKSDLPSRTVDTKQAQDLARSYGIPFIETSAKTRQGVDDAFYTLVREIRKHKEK

As for `Cc1noc(/C=C/C(=O)N2CC(CN(C)c3nc(OC[C@@]45CCCN4C[C@H](F)C5)nc4c(F)c(-c5cc(O)cc6cccc(Cl)c56)ncc34)C2)n1` [Example 98, (E)-1-(3-(((7-(8-chloro-3-hydroxynaphthalen-1-yl)-8-fluoro-2-(((2R,7aS)-2-fluorotetrahydro-1H-pyrrolizin-7a(5H)-yl)methoxy)pyrido[4,3-d]pyrimidin-4-yl)(methyl)amino)methyl)azetidin-1-yl)-3-(3-methyl-1,2,4-oxadiazol-5-yl)prop-2-en-1-one], the IC50 was below 10 nM.
